Test results as given in patent US12077503B2, “Substituted cyclic amides and their use as herbicides” (FMC CORPORATION, priority 2015, dated 2024).

Key:
Type in all cases: in vivo
[1] = tested on: corn (Zea mays); assay: Test G Post-Emergence Protocol; conditions: Zea mays, post-emergence, 312 h
How it was run: (§1)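 Damage was rated 13 days after treatment from 0 (none) to 100 (plant killed). Compound was applied as a spray at 15.625, 62.5 or 250 g/ha in 50:50 acetone/water containing 0.5% Tween 20, onto 8-day-old potted plants kept in a glasshouse (24/16 °C, 14 h light, 65% humidity).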

[2] = tested on: barnyardgrass (Echinochloa crus-galli); assay: Test G Post-Emergence Protocol; conditions: Echinochloa crus-galli, post-emergence, 312 h
How it was run: as §1

[3] = tested on: redroot pigweed (Amaranthus retroflexus); assay: Test G Post-Emergence Protocol; conditions: Amaranthus retroflexus, post-emergence, 312 h
How it was run: as §1

[4] = tested on: giant foxtail (Setaria faberi); assay: Test G Post-Emergence Protocol; conditions: Setaria faberi, post-emergence, 312 h
How it was run: as §1

[5] = tested on: velvetleaf (Abutilon theophrasti); assay: Test G Post-Emergence Protocol; conditions: Abutilon theophrasti, post-emergence, 312 h
How it was run: as §1

[6] = tested on: ivy-leaved morning glory (Ipomoea hederacea); assay: Test G Post-Emergence Protocol; conditions: Ipomoea, post-emergence, 312 h
How it was run: as §1

[7] = tested on: corn (Zea mays); assay: Test G Pre-Emergence Protocol; conditions: Zea mays, pre-emergence, 312 h, evaluated after 13 days
How it was run: (§2)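 Herbicidal effect was rated 13 days post-application on a scale where 100 equals total damage. Spraying took place the day after sowing, using 15.625, 62.5 or 250 g/ha of compound in a 50:50 acetone/water solution with 0.5% Tween 20.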

[8] = tested on: barnyardgrass (Echinochloa crus-galli); assay: Test G Pre-Emergence Protocol; conditions: Echinochloa crus-galli, pre-emergence, 312 h, evaluated after 13 days
How it was run: as §2

[9] = tested on: redroot pigweed (Amaranthus retroflexus); assay: Test G Pre-Emergence Protocol; conditions: Amaranthus retroflexus, pre-emergence, 312 h, evaluated after 13 days
How it was run: as §2

[10] = tested on: giant foxtail (Setaria faberi); assay: Test G Pre-Emergence Protocol; conditions: Setaria faberi, pre-emergence, 312 h, evaluated after 13 days
How it was run: as §2

[11] = tested on: velvetleaf (Abutilon theophrasti); assay: Test G Pre-Emergence Protocol; conditions: Abutilon theophrasti, pre-emergence, 312 h, evaluated after 13 days
How it was run: as §2

[12] = tested on: ivy-leaved morning glory (Ipomoea hederacea); assay: Test G Pre-Emergence Protocol; conditions: Ipomoea, pre-emergence, 312 h, evaluated after 13 days
How it was run: as §2

CN1C[C@@H](c2ccc(C(F)(F)F)cc2)[C@H](C(=O)Nc2nnnn2C)C1=O (racemic) [Compound 1618]
plant injury at 15.625 g/ha ([1]; 15.625 g ai/ha, evaluated after 13 days (100=total damage to plant; 0=no damage to plant), read-out: Corn damage rating): 0% | plant injury at 62.5 g/ha ([1]; 62.5 g ai/ha, evaluated after 13 days, read-out: Corn damage rating (100=total damage to plant; 0=no damage to plant)): 0% | plant injury at 250 g/ha ([1]; 250 g ai/ha, evaluated after 13 days, read-out: damage to plant, Corn (100=total damage to plant; 0=no damage to plant)): 0% | pest or weed control at 15.625 g/ha ([2]; 15.625 g ai/ha, evaluated after 13 days (100=total damage to plant; 0=no damage to plant), read-out: Barnyardgrass damage rating): 0% | pest or weed control at 62.5 g/ha ([2]; 62.5 g ai/ha, evaluated after 13 days, read-out: Barnyardgrass damage rating (100=total damage to plant; 0=no damage to plant)): 0% | pest or weed control at 250 g/ha ([2]; 250 g ai/ha, evaluated after 13 days, read-out: damage to plant, Barnyardgrass (100=total damage to plant; 0=no damage to plant)): 0% | pest or weed control at 15.625 g/ha ([3]; 15.625 g ai/ha, evaluated after 13 days (100=total damage to plant; 0=no damage to plant), read-out: Pigweed, Redroot damage rating): 0% | pest or weed control at 62.5 g/ha ([3]; 62.5 g ai/ha, evaluated after 13 days, read-out: Pigweed, Redroot damage rating (100=total damage to plant; 0=no damage to plant)): 0% | pest or weed control at 250 g/ha ([3]; 250 g ai/ha, evaluated after 13 days, read-out: damage to plant, Pigweed, Redroot (100=total damage to plant; 0=no damage to plant)): 0% | pest or weed control at 15.625 g/ha ([4]; 15.625 g ai/ha, evaluated after 13 days (100=total damage to plant; 0=no damage to plant), read-out: Foxtail, Giant damage rating): 0% | pest or weed control at 62.5 g/ha ([4]; 62.5 g ai/ha, evaluated after 13 days, read-out: Foxtail, Giant damage rating (100=total damage to plant; 0=no damage to plant)): 0% | pest or weed control at 250 g/ha ([4]; 250 g ai/ha, evaluated after 13 days, read-out: damage to plant, Foxtail, Giant (100=total damage to plant; 0=no damage to plant)): 0% | pest or weed control at 15.625 g/ha ([5]; 15.625 g ai/ha, evaluated after 13 days (100=total damage to plant; 0=no damage to plant), read-out: Velvetleaf damage rating): 0% | pest or weed control at 62.5 g/ha ([5]; 62.5 g ai/ha, evaluated after 13 days, read-out: Velvetleaf damage rating (100=total damage to plant; 0=no damage to plant)): 0% | pest or weed control at 250 g/ha ([5]; 250 g ai/ha, evaluated after 13 days, read-out: damage to plant, Velvetleaf (100=total damage to plant; 0=no damage to plant)): 0% | pest or weed control at 15.625 g/ha ([6]; 15.625 g ai/ha, evaluated after 13 days (100=total damage to plant; 0=no damage to plant), read-out: Morningglory, Ivy-leaved damage rating): 0% | pest or weed control at 62.5 g/ha ([6]; 62.5 g ai/ha, evaluated after 13 days, read-out: Morningglory, Ivy-leaved damage rating (100=total damage to plant; 0=no damage to plant)): 0% | pest or weed control at 250 g/ha ([6]; 250 g ai/ha, evaluated after 13 days, read-out: damage to plant, Morningglory, Ivy-leaved (100=total damage to plant; 0=no damage to plant)): 0% | plant injury at 15.625 g/ha ([7]; 15.625 g ai/ha, read-out: Corn damage rating (100=total damage to plant; 0=no damage to plant)): 0% | plant injury at 62.5 g/ha ([7]; 62.5 g ai/ha, 100=total damage to plant, 0=no damage to plant, read-out: plant damage rating, Corn): 0% | plant injury at 250 g/ha ([7]; 250 g ai/ha, read-out: Corn damage rating (100=total damage to plant; 0=no damage to plant)): 20% | pest or weed control at 15.625 g/ha ([8]; 15.625 g ai/ha, read-out: Barnyard grass damage rating (100=total damage to plant; 0=no damage to plant)): 0% | pest or weed control at 62.5 g/ha ([8]; 62.5 g ai/ha, 100=total damage to plant, 0=no damage to plant, read-out: plant damage rating, Barnyardgrass): 0% | pest or weed control at 250 g/ha ([8]; 250 g ai/ha, read-out: Barnyardgrass damage rating (100=total damage to plant; 0=no damage to plant)): 10% | pest or weed control at 15.625 g/ha ([9]; 15.625 g ai/ha, read-out: Pigweed, Redroot damage rating (100=total damage to plant; 0=no damage to plant)): 0% | pest or weed control at 62.5 g/ha ([9]; 62.5 g ai/ha, 100=total damage to plant, 0=no damage to plant, read-out: plant damage rating, Pigweed, Redroot): 0% | pest or weed control at 250 g/ha ([9]; 250 g ai/ha, read-out: Pigweed, Redroot damage rating (100=total damage to plant; 0=no damage to plant)): 20% | pest or weed control at 15.625 g/ha ([10]; 15.625 g ai/ha, read-out: Foxtail, Giant damage rating (100=total damage to plant; 0=no damage to plant)): 0% | pest or weed control at 62.5 g/ha ([10]; 62.5 g ai/ha, 100=total damage to plant, 0=no damage to plant, read-out: plant damage rating, Foxtail, Giant): 0% | pest or weed control at 250 g/ha ([10]; 250 g ai/ha, read-out: Foxtail, Giant damage rating (100=total damage to plant; 0=no damage to plant)): 20% | pest or weed control at 15.625 g/ha ([11]; 15.625 g ai/ha, read-out: Velvetleaf damage rating (100=total damage to plant; 0=no damage to plant)): 0% | pest or weed control at 62.5 g/ha ([11]; 62.5 g ai/ha, 100=total damage to plant, 0=no damage to plant, read-out: plant damage rating, Velvetleaf): 0% | pest or weed control at 250 g/ha ([11]; 250 g ai/ha, read-out: Velvetleaf damage rating (100=total damage to plant; 0=no damage to plant)): 10% | pest or weed control at 15.625 g/ha ([12]; 15.625 g ai/ha, read-out: Morning-glory, Ivy-leaved damage rating (100=total damage to plant; 0=no damage to plant)): 0% | pest or weed control at 62.5 g/ha ([12]; 62.5 g ai/ha, 100=total damage to plant, 0=no damage to plant, read-out: plant damage rating, Morningglory, Ivy-leaved): 0% | pest or weed control at 250 g/ha ([12]; 250 g ai/ha, read-out: Morningglory, Ivy-leaved damage rating (100=total damage to plant; 0=no damage to plant)): 20%
